Data taken from patent US8324227B2, “Thieno[2,3-D]-pyrimidin-4(3H)-one compounds with antifungal properties and process thereof” (FDC Limited, priority 2008, dated 2012).
Converted amounts (≈) assume the structure as drawn.

Tests used:
Experiment in all cases: Antifungal susceptibility, MIC by broth macro-dilution method
A. niger (ATCC 16404) = type: cell-based, Aspergillus niger; details: end points after 48 hours, NI till x = no inhibition up to x; for MIC: Aspergillus niger, ATCC16404, RPMI 1640 medium with MOPS buffer, read-out: MIC against fungi, A. niger (ATCC 16404); for MIC against fungi, A. niger (ATCC 16404): RPMI 1640 medium with MOPS buffer
Experimental: (§1) In vitro evaluation of antifungal activity was performed by determining the minimum inhibitory concentration (MIC). Anti-fungal susceptibility testing of these anti-fungal compounds was done by broth dilution method using RPMI 1640 medium with MOPS buffer. Known anti-fungal agents like fluconazole and amphotericin-B were used as positive control. End points were determined after 48 hours visually and by using spectrophotometer wherever necessary. Different dilutions were, tried and various sets of experiments performed.

[1] = test system: F. proliferatum (ATCC 10052); type: cell-based, Fusarium proliferatum; details: end points after 48 hours, NI till x = no inhibition up to x; for MIC: Fusarium proliferatum, ATCC10052, RPMI 1640 medium with MOPS buffer, read-out: MIC against fungi, F. proliferatum (ATCC 10052); for MIC against fungi, F. proliferatum (ATCC 10052): RPMI 1640 medium with MOPS buffer
Experimental: as §1

C. albicans (ATCC 24433) = type: cell-based, Candida albicans; details: end points after 48 hours, NI till x = no inhibition up to x; for MIC: Candida albicans, ATCC24433, RPMI 1640 medium with MOPS buffer, read-out: MIC against fungi, C. albicans (ATCC 24433); for MIC against fungi, C. albicans (ATCC 24433): RPMI 1640 medium with MOPS buffer
Experimental: as §1

| Compound | MIC (A. niger (ATCC 16404)) | MIC [1] | MIC (C. albicans (ATCC 24433)) | MIC against fungi, A. niger (ATCC 16404) (A. niger (ATCC 16404)) | MIC against fungi, F. proliferatum (ATCC 10052) [1] | MIC against fungi, C. albicans (ATCC 24433) (C. albicans (ATCC 24433)) |
| --- | --- | --- | --- | --- | --- | --- |
| O=c1c2cc(CCCOCc3ccccc3)sc2ncn1CC(O)(Cn1cncn1)c1ccc(F)cc1F (stereo not drawn) [Compound 1-A02, 6-(3-Benzyloxypropyl)-3-[2-(2,4-difluorophenyl)-2-hydroxy-3-[1,2,4]-triazol-1-ylpropyl]-thieno[2,3-d]pyrimidin-4(3H)-one] | > 4 mg/L | > 4 mg/L | 0.06 to 0.12 mg/L (≈ 0.112 to 0.223 µM) |  |  |  |
| NCC(=O)OCCCCc1cc2c(=O)n(CC(O)(Cn3cncn3)c3ccc(F)cc3F)cnc2s1 (stereo not drawn) [Compound 1-A25, 3-[2-(2,4-Difluorophenyl)-2-hydroxy-3-[1,2,4]-triazol-1-yl-propyl]-6-(4-aminoacetyloxybutyl)-thieno[2,3-d]pyrimidin-4(3H)-one] | > 8 mg/L | > 8 mg/L | 4 to 8 mg/L (≈ 7.71 to 15.4 µM) |  |  |  |
| CCCCCc1c(C)sc2ncn(CC(O)(Cn3cncn3)c3ccc(F)cc3F)c(=O)c12 (stereo not drawn) [Compound 1-A08, 3-[2-(2,4-Difluorophenyl)-2-hydroxy-3-[1,2,4]triazol-1-yl-propyl]-6-methyl-5-npentyl-thieno[2,3-d]pyrimidin-4(3H)-one] |  |  |  | NI till 4 μg/ml | NI till 4 μg/ml | 2 to 4 mg/L |
| O=c1c2cc(CCCO)sc2ncn1CC(O)(Cn1cncn1)c1ccc(F)cc1F (stereo not drawn) [Compound 1-A27, 3-[2-(2,4-Difluorophenyl)-2-hydroxy-3-[1,2,4]-triazol-1-yl-propyl]-6-(3-hydroxypropyl)-thieno[2,3-d]pyrimidin-4(3H)-one] | > 128 mg/L | > 128 mg/L | 2 to 4 mg/L (≈ 4.47 to 8.94 µM) |  |  |  |
| CC(=O)OCCCc1cc2c(=O)n(CC(O)(Cn3cncn3)c3ccc(F)cc3F)cnc2s1 (stereo not drawn) [Compound 1-A26, 3-[2-(2,4-Difluorophenyl)-2-hydroxy-3-[1,2,4]-triazol-1-yl-propyl]-6-(3-acetoxypropyl)-thieno[2,3-d]pyrimidin-4(3H)-one] | > 64 mg/L | > 64 mg/L | 1 to 2 mg/L (≈ 2.04 to 4.09 µM) |  |  |  |
| CCCCCCCCCCc1cc2c(=O)n(CC(O)(Cn3cncn3)c3ccc(F)cc3F)cnc2s1 (stereo not drawn) [Compound 1-A16, 6-n-Decyl-3-[2-(2,4-difluorophenyl)-2-hydroxy-3-[1,2,4]triazol-1-yl-propyl]thieno[2,3-d]pyrimidin-4(3H)-one] | > 2 mg/L | > 2 mg/L | 1 to 2 mg/L (≈ 1.89 to 3.78 µM) |  |  |  |
| OC(Cn1cncn1)(Cn1cncn1)c1ccc(F)cc1F [Fluconazole, reference compound] | 64 to 128 mg/L (≈ 209 to 418 µM) | > 128 mg/L | 0.25 to 1 mg/L (≈ 0.816 to 3.27 µM) |  |  |  |
| O=c1c2c(CCc3ccccc3)csc2ncn1CC(O)(Cn1cncn1)c1ccc(F)cc1F (stereo not drawn) [Compound 1-A14, 3-[2-(2,4-Difluorophenyl)-2-hydroxy-3-[1,2,4]triazol-1-yl-propyl]-5(2-phenylethyl)-thieno[2,3-d]pyrimidin-4(3H)-one] | > 2 mg/L | > 2 mg/L | 0.5 to 1 mg/L (≈ 1.01 to 2.03 µM) |  |  |  |
| CC(C)(C)OC(=O)NCC(=O)OCCCCc1cc2c(=O)n(CC(O)(Cn3cncn3)c3ccc(F)cc3F)cnc2s1 (stereo not drawn) [Compound 1-A24, 3-[2-(2,4-Difluorophenyl)-2-hydroxy-3-[1,2,4]triazol-1-yl-propyl]-6-(4-N-Bocaminoacetyloxybutyl)-thieno[2,3-d]pyrimidin-4(3H)-one] |  |  |  | NI till 16 μg/ml | NI till 16 μg/ml | 0.5 to 1 mg/L |

More lines, now with the values ahead:

| MIC (A. niger (ATCC 16404)) | MIC [1] | MIC (C. albicans (ATCC 24433)) | MIC against fungi, A. niger (ATCC 16404) (A. niger (ATCC 16404)) | MIC against fungi, F. proliferatum (ATCC 10052) [1] | MIC against fungi, C. albicans (ATCC 24433) (C. albicans (ATCC 24433)) | Compound |
| --- | --- | --- | --- | --- | --- | --- |
| > 4 mg/L | > 4 mg/L | 1 to 2 mg/L (≈ 2.03 to 4.05 µM) |  |  |  | Cc1c(Cc2ccccc2)sc2ncn(CC(O)(Cn3cncn3)c3ccc(F)cc3F)c(=O)c12 (stereo not drawn) [Compound 1-A15, 6-Benzyl-3-[2-(2,4-difluorophenyl)-2-hydroxy-3-[1,2,4]-triazol-1-yl-propyl]-5-methyl-thieno[2,3-d]pyrimidin-4(3H)-one] |
| > 64 mg/L | > 64 mg/L | 0.25 to 0.5 mg/L (≈ 0.62 to 1.24 µM) |  |  |  | Cc1cc2c(=O)n(CC(O)(Cn3cncn3)c3ccc(F)cc3F)cnc2s1 (stereo not drawn) [Compound 1-A28, 3-[2-(2,4-Difluorophenyl)-2-hydroxy-3-[1,2,4]-triazol-1-yl-propyl]-6-methylthieno[2,3-d]pyrimidin-4(3H)-one] |
| > 2 mg/L | > 2 mg/L | 1 to 2 mg/L (≈ 2.05 to 4.1 µM) |  |  |  | CCCCCCc1sc2ncn(CC(O)(Cn3cncn3)c3ccc(F)cc3F)c(=O)c2c1C (stereo not drawn) [Compound 1-A10, 3-[2-(2,4-Difluorophenyl)-2-hydroxy-3-[1,2,4]-triazol-1-yl-propyl]-6-n-hexyl-5-methyl-thieno[2,3-d]pyrimidin-4(3H)-one] |
| > 64 mg/L | > 64 mg/L | 1 to 2 mg/L (≈ 2.17 to 4.33 µM) |  |  |  | O=c1c2cc(CCCCO)sc2ncn1CC(O)(Cn1cncn1)c1ccc(F)cc1F (stereo not drawn) [Compound 1-A23, 3-[2-(2,4-Difluorophenyl)-2-hydroxy-3-[1,2,4]-triazol-1-yl-propyl]-6-(4-hydroxybutyl)-thieno[2,3-d]pyrimidin-4(3H)-one] |
